Assay results published in PubChem BioAssay (NCI).
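All cell lines were grown in 96-well plates and treated with compound for 48 hours. Abbreviation: GI50, concentration required for 50% inhibition of growth. The concentration for full growth arrest is given as TGI.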

Columns and labels:
Assay in all cases: growth of human tumour cells (NCI), 48 h
[1] = test system: SK-OV-3 ovarian
[2] = test system: MDA-MB-231 breast
[3] = test system: M14 melanoma
[4] = test system: SR leukemia
[5] = test system: MOLT-4 leukemia
[6] = test system: SK-MEL-28 melanoma
[7] = test system: UACC-62 melanoma
[8] = test system: SF-539 CNS
[9] = test system: OVCAR-8 ovarian
[10] = test system: HL-60(TB) leukemia

Compound	GI50 [1]	TGI [1]	GI50 [2]	TGI [2]	GI50 [3]	TGI [3]	GI50 [4]	TGI [4]	GI50 [5]	TGI [5]	GI50 [6]	TGI [6]	GI50 [7]	TGI [7]	GI50 [8]	TGI [8]	GI50 [9]	TGI [9]	GI50 [10]	TGI [10]
COc1cc[nH]c1/C=C1\C(=O)Nc2ccc(F)c(C#CC3(O)CCOCC3)c21	0.441 µM	> 25 µM	0.885 µM	> 25 µM	0.664 µM	4.28 µM	0.447 µM	2.75 µM	0.679 µM	2.92 µM	0.677 µM	3.11 µM	0.375 µM	0.929 µM	0.489 µM	1.03 µM	0.867 µM	> 25 µM	0.686 µM	1.6 µM
O=C1OC(c2ccc(O)cc2)(c2ccc(O)cc2)c2cccc3cccc1c23	18.8 µM	33.1 µM	14.2 µM	35.5 µM	16.4 µM	33 µM	10.8 µM	38.3 µM	11.7 µM	33.8 µM	14.3 µM	29.5 µM	11.3 µM	25.7 µM	15.2 µM	29 µM	16.7 µM	44.1 µM	18 µM	45.5 µM
CCOC(=O)c1[nH]c2c(c1C)-c1[nH]c(=O)c(S(=O)(=O)c3ccccc3)cc1SC2	56.6 µM	> 100 µM	34.9 µM	> 100 µM	38.8 µM	> 100 µM	30.3 µM	> 100 µM	15.7 µM	> 100 µM	70 µM	> 100 µM	46.7 µM	> 100 µM	30.6 µM	> 100 µM	37.7 µM	> 100 µM	23.2 µM	> 100 µM
COc1cc(C2C3=C(COC3=O)N(CCO)c3cc4c(cc32)CCC4)cc(OC)c1O (centres undefined)	0.168 µM	> 32.5 µM	0.76 µM	> 32.5 µM	0.179 µM		0.192 µM	> 32.5 µM	0.52 µM	> 32.5 µM	0.213 µM	> 32.5 µM	0.134 µM	> 32.5 µM	0.136 µM	> 32.5 µM	0.365 µM	> 32.5 µM	0.0874 µM	0.448 µM
CC(CS(=O)(=O)Cc1ccccc1)C(N)=O (centres undefined)		> 100 µM		> 100 µM		> 100 µM		> 100 µM		> 100 µM		> 100 µM		> 100 µM		> 100 µM		> 100 µM		> 100 µM
Cc1c(C(C)C)cc(OCCO)cc1C(C)C		> 100 µM		80 µM		> 100 µM		73.8 µM		> 100 µM		> 100 µM		> 100 µM		> 100 µM		> 100 µM		56.9 µM
O=C(N[C@@H]1CCCc2ccccc21)[C@H](CCC(=O)N1CCN(C2CCCCC2)CC1)N1C(=O)[C@@H](N2C(=O)OC[C@@H]2c2ccccc2)[C@H]1/C=C/c1ccccc1	3.02 µM	14 µM	1.89 µM	4.12 µM	1.47 µM	3.31 µM	2.68 µM	> 100 µM	2.27 µM	> 100 µM	1.77 µM	3.67 µM	1.86 µM	3.93 µM	1.74 µM	3.42 µM	4.58 µM	18.9 µM	2.1 µM	5.71 µM
Oc1cccc(-c2nc3ccccc3s2)c1		> 100 µM		56.2 µM		60.4 µM		> 100 µM		> 100 µM		> 100 µM		> 100 µM		> 100 µM		> 100 µM		> 100 µM
